According to ChEMBL document CHEMBL1144109, “Structures and cytotoxicity relationship of isoaaptamine and aaptamine derivatives” (J Nat Prod, 1999):
Converted amounts (≈) assume the structure as drawn.

Tests used:
Type in all cases: functional, cell-based
A549 = experiment: Cytotoxicity against human A549 cells after 6 days by MTT assay; conditions: A549, 144 h
[1] = Cytotoxicity against human KB16 cells after 3 days by MTT assay; conditions: KB16, 72 h
P388 = experiment: Cytotoxicity against mouse P388 cells after 3 days by MTT assay; conditions: P388, 72 h
HT-29 = experiment: Cytotoxicity against human HT-29 cells after 6 days by MTT assay; conditions: HT-29, 144 h

## COc1cc2ccnc3c2c(c1OC(C)=O)N(C)C=C3
A549
  IC50: > 50 µg/mL
[1]
  IC50: > 50 µg/mL
P388
  IC50: 4.2 µg/mL (≈ 15.5 µM)
HT-29
  IC50: > 50 µg/mL

## CCC(=O)Oc1c(OC)cc2ccnc3c2c1N(C)C=C3
A549
  IC50: 18 µg/mL (≈ 63.3 µM)
[1]
  IC50: 28 µg/mL (≈ 98.5 µM)
P388
  IC50: 1.4 µg/mL (≈ 4.92 µM)
HT-29
  IC50: 13 µg/mL (≈ 45.7 µM)

## COc1cc2ccnc3c2c(c1OC)NC=C3 [AAPTAMINE]
A549
  IC50: 2.8 µg/mL (≈ 12.3 µM)
[1]
  IC50: 3.9 µg/mL (≈ 17.1 µM)
P388
  IC50: 0.6 µg/mL (≈ 2.63 µM)
HT-29
  IC50: 6.9 µg/mL (≈ 30.2 µM)

## CCCCCCCCC(=O)Oc1c(OC)cc2ccnc3c2c1N(C)C=C3
A549
  IC50: 12 µg/mL (≈ 32.6 µM)
[1]
  IC50: 33 µg/mL (≈ 89.6 µM)
P388
  IC50: 0.04 µg/mL (≈ 0.109 µM)
HT-29
  IC50: 3 µg/mL (≈ 8.14 µM)

## CCCCCCCCCCCC(=O)N1CCc2cc(OC)c(OC)c3nccc1c23
A549
  IC50: 5.6 µg/mL (≈ 13.6 µM)
[1]
  IC50: 7.8 µg/mL (≈ 18.9 µM)
P388
  IC50: 0.1 µg/mL (≈ 0.242 µM)
HT-29
  IC50: 9.6 µg/mL (≈ 23.3 µM)

## CCCCCCCCCCCC(=O)Oc1c(OC)cc2ccnc3c2c1N(C)C=C3
A549
  IC50: 3.7 µg/mL (≈ 9.01 µM)
[1]
  IC50: 20 µg/mL (≈ 48.7 µM)
P388
  IC50: 0.03 µg/mL (≈ 0.0731 µM)
HT-29
  IC50: 2.5 µg/mL (≈ 6.09 µM)

## CCCCCCCCCCCCCCCCCC(=O)Oc1c(OC)cc2ccnc3c2c1N(C)C=C3
A549
  IC50: > 50 µg/mL
[1]
  IC50: > 50 µg/mL
P388
  IC50: 1.1 µg/mL (≈ 2.22 µM)
HT-29
  IC50: 21 µg/mL (≈ 42.4 µM)

## COc1cc2c3c(ccnc3c1OC)NCC2 [DIHYDROAAPTAMINE]
A549
  IC50: 23 µg/mL (≈ 99.9 µM)
[1]
  IC50: 22 µg/mL (≈ 95.5 µM)
P388
  IC50: 1.8 µg/mL (≈ 7.82 µM)
HT-29
  IC50: 47 µg/mL (≈ 204 µM)

## CCCCCC(=O)Oc1c(OC)cc2ccnc3c2c1N(C)C=C3
A549
  IC50: 13 µg/mL (≈ 39.8 µM)
[1]
  IC50: 33 µg/mL (≈ 101 µM)
P388
  IC50: 0.7 µg/mL (≈ 2.14 µM)
HT-29
  IC50: 12 µg/mL (≈ 36.8 µM)

## CCCCCC(=O)N1CCc2cc(OC)c(OC)c3nccc1c23
A549
  IC50: > 50 µg/mL
[1]
  IC50: > 50 µg/mL
P388
  IC50: 3.7 µg/mL (≈ 11.3 µM)
HT-29
  IC50: > 50 µg/mL

## COC1=Cc2ccnc3ccnc(c23)C1=O [DEMETHYLOXY-AAPTAMINE]
A549
  IC50: 0.3 µg/mL (≈ 1.41 µM)
[1]
  IC50: 0.1 µg/mL (≈ 0.471 µM)
P388
  IC50: 0.01 µg/mL (≈ 0.0471 µM)

## CCCCCCCCCCCCCCCCCC(=O)N1CCc2cc(OC)c(OC)c3nccc1c23
A549
  IC50: > 50 µg/mL
[1]
  IC50: 20 µg/mL (≈ 40.3 µM)
P388
  IC50: 2.7 µg/mL (≈ 5.44 µM)
HT-29
  IC50: > 50 µg/mL

## CCCCC(=O)Oc1c(OC)cc2ccnc3c2c1N(C)C=C3
A549
  IC50: 13 µg/mL (≈ 41.6 µM)
[1]
  IC50: 35 µg/mL (≈ 112 µM)
P388
  IC50: 1.8 µg/mL (≈ 5.76 µM)
HT-29
  IC50: 9 µg/mL (≈ 28.8 µM)

## COc1cc2ccnc3c2c(c1O)N(C)C=C3 [ISOAAPTAMINE]
A549
  IC50: 0.3 µg/mL (≈ 1.31 µM)
[1]
  IC50: 0.4 µg/mL (≈ 1.75 µM)
P388
  IC50: 0.04 µg/mL (≈ 0.175 µM)
HT-29
  IC50: 0.4 µg/mL (≈ 1.75 µM)

## CCCCCCC(=O)Oc1c(OC)cc2ccnc3c2c1N(C)C=C3
A549
  IC50: 11 µg/mL (≈ 32.3 µM)
[1]
  IC50: 38 µg/mL (≈ 112 µM)
P388
  IC50: 0.7 µg/mL (≈ 2.06 µM)
HT-29
  IC50: 13 µg/mL (≈ 38.2 µM)

## COC1=Cc2ccnc3c2C1=C(OC)NC=C3 [AAPTOSINE]
A549
  IC50: > 50 µg/mL
HT-29
  IC50: > 50 µg/mL

## CCCCCCCC(=O)Oc1c(OC)cc2ccnc3c2c1N(C)C=C3
A549
  IC50: 14 µg/mL (≈ 39.5 µM)
[1]
  IC50: 15 µg/mL (≈ 42.3 µM)
P388
  IC50: 1.5 µg/mL (≈ 4.23 µM)
HT-29
  IC50: 12 µg/mL (≈ 33.9 µM)

## CCCCCCCCCCCCCC(=O)Oc1c(OC)cc2ccnc3c2c1N(C)C=C3
A549
  IC50: 5.6 µg/mL (≈ 12.8 µM)
[1]
  IC50: 3.3 µg/mL (≈ 7.52 µM)
P388
  IC50: 0.3 µg/mL (≈ 0.684 µM)
HT-29
  IC50: 2.7 µg/mL (≈ 6.16 µM)

## CCCCCCCCCC(=O)Oc1c(OC)cc2ccnc3c2c1N(C)C=C3
A549
  IC50: 6.1 µg/mL (≈ 15.9 µM)
[1]
  IC50: 20 µg/mL (≈ 52.3 µM)
P388
  IC50: 0.03 µg/mL (≈ 0.0784 µM)
HT-29
  IC50: 2.5 µg/mL (≈ 6.54 µM)

## CCCCCCCCCCCCCCCC(=O)Oc1c(OC)cc2ccnc3c2c1N(C)C=C3
A549
  IC50: 7.3 µg/mL (≈ 15.6 µM)
[1]
  IC50: 8 µg/mL (≈ 17.1 µM)
P388
  IC50: 0.1 µg/mL (≈ 0.214 µM)
HT-29
  IC50: 9 µg/mL (≈ 19.3 µM)

## COc1cc2c3c(ccnc3c1OC)N(C(C)=O)CC2
A549
  IC50: 20 µg/mL (≈ 73.4 µM)
[1]
  IC50: 32 µg/mL (≈ 118 µM)
P388
  IC50: 2.6 µg/mL (≈ 9.55 µM)
HT-29
  IC50: 17 µg/mL (≈ 62.4 µM)
